Assay results from patent US20240301472A1, “NUCLEIC ACID DETECTION METHOD, COMPOUND AND FLUORESCENT PROBE” (WAKAYAMA UNIVERSITY, priority 2020, published 2024).

Legend:
fixed HeLa cells = assay: Competition experiment with Hoechist 33258 using fixed HeLa cells; type: cell-based; conditions: Hoechist 33258 0-6.0 μM with compound 10 (6 μM) in PBS
Method: In a ninth experiment, a competition experiment with Hoechist 33258 was performed using fixed HeLa cells. As the staining liquid, one obtained by causing Hoechist 33258 at an arbitrary concentration (0 μM, 1.5 μM, 3.0 μM, 6.0 μM) to coexist in a PBS solution of the compound 10 (6 μM) was used, and the experiment was performed according to an operation similar to that in the fourth experiment. […] In FIG. 27, “Ph” is a phase contrast observation image of cells at each concentration of Hoechist 33258. “Hoe” is a 460 nm fluorescence image at each concentration of Hoechist 33258. The fluorescence wavelength of Hoechist 33258 is 460 nm. “600 nm” is a 600 nm fluorescence image. “700 nm” is a 700 nm fluorescence image. “600 nm/700 nm” is a synthesized image of “600 nm” and “700 nm”. “Magnified 600 nm/700 nm” is a magnified image of “600 nm/700 nm”.

living HeLa cells = assay: Competition experiment with Hoechist 33258 using living HeLa cells; type: cell-based; conditions: Hoechist 33258 0-20 μM with compound 10 (1 μM) in 5% glucose
Method: In a tenth experiment, a competition experiment with Hoechist 33258 was performed using living HeLa cells. As the staining liquid, one obtained by causing Hoechist 33258 at an arbitrary concentration (0 μM, 5.0 μM, 10 μM, 20 μM) to coexist in a 5% glucose solution of the compound 10 (1 μM) was used, and the experiment was performed according to an operation similar to that in the sixth experiment. […] In FIG. 28, “600 nm” is a 600 nm fluorescence image. “700 nm” is a 700 nm fluorescence image. “Hoe” is a 460 nm fluorescence image at each concentration of Hoechist 33258. “Merged” is a synthesized image of “600 nm”, “700 nm”, and “Hoe”.

[1] = test system: viable cells (HeLA, A549, HEK293, MRC-5); assay: Tracking of quadruplex nucleic acid formation in viable cells stained by compound 10 (response to PDS); type: cell-based; conditions: PDS 20 μM added to viable cells stained by compound 10 (1 μM)
Method: In the seventh experiment, pyridostatin (PDS: 20 μM) was added to viable cells stained by the same method as that in the sixth experiment and temporal change of a fluorescence image thereafter was observed. Pyridostatin (PDS) is a reagent for stabilizing quadruplex nucleic acids. FIG. 24 and FIG. 25 show the result of the seventh experiment.
In FIG. 25 as well, a case where PDS was added to the viable cells stained by the compound 10 was indicated with PDS (+), and a case where PDS was not added was indicated with PDS (−). In FIG. 25, the vertical axis represents intensity ratio between 600 nm fluorescence and 700 nm fluorescence, and the horizontal axis represents time after addition of PDS.

ds(AAATTT) being a dsDNA = conditions: conventional fluorescent ds probe, comparison value, read-out: dissociation constant; cited from earlier work

CN1CCN(c2ccc3[nH]c(-c4ccc5[nH]c(-c6ccc(O)cc6)nc5c4)nc3c2)CC1 [Hoechist 33258]
600 nm fluorescence intensity of compound 10 with increasing Hoechist 33258 concentration (fixed HeLa cells): significantly decreased | 600 nm fluorescence intensity of compound 10 with increasing Hoechist 33258 concentration (living HeLa cells): significantly decreased

NCCOc1cc(C(=O)Nc2cc(OCCN)c3ccccc3n2)nc(C(=O)Nc2cc(OCCN)c3ccccc3n2)c1 [PDS, Pyridostatin]
intensity ratio of 700 nm fluorescence to 600 nm fluorescence [1]: increased

C[n+]1c(/C=C/c2ccc(O)c(/C=C/c3sc4ccccc4[n+]3C)c2)sc2ccccc21 [QCy-DT, quinone cyanine-dithiazole]
Kd (ds(AAATTT) being a dsDNA): ~670 nM
